Data taken from the supplement of paper PMC6045584.
± gives the standard deviation of the averaged measurements.

Columns and labels:
MK0752 = compound: O=C(O)CC[C@H]1CC[C@@](c2cc(F)ccc2F)(S(=O)(=O)c2ccc(Cl)cc2)CC1 [MK0752]; assay: surviving fraction relative to DMSO-only wells; higher = less growth inhibition; details: exposure time: 5 days
Outline: (§1)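 Log-phase tumour cell lines, 250–500 cells per well in 384-well plates, received inhibitors at 0.5, 1, 5, 10, 50, 100, 500 and 1000 nM continuously for five days, starting 24 hours after seeding. Viability was quantified with CellTiter-Glo luminescence and normalised to the median of DMSO-only wells to give surviving fraction. Three screens were run per line, and a line stayed in only with replicate Pearson r >0.7 and median Z' >0.3.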

[1] = compound: O=C(NOCC1CC1)c1ccc(F)c(F)c1Nc1ccc(I)cc1Cl; assay: as above; details: exposure time: 5 days
Outline: as §1

Row | Test System | surviving fraction (MK0752; 0.5 nM) | surviving fraction (MK0752; 1 nM) | surviving fraction (MK0752; 5 nM) | surviving fraction (MK0752; 10 nM) | surviving fraction (MK0752; 50 nM) | surviving fraction (MK0752; 100 nM) | surviving fraction (MK0752; 500 nM) | surviving fraction (MK0752; 1000 nM) | surviving fraction ([1]; 0.5 nM) | surviving fraction ([1]; 1 nM) | surviving fraction ([1]; 5 nM) | surviving fraction ([1]; 10 nM) | surviving fraction ([1]; 50 nM) | surviving fraction ([1]; 100 nM) | surviving fraction ([1]; 500 nM) | surviving fraction ([1]; 1000 nM)
1 | HELA CERVIX | 1.07 ± 0.098 | 1.14 ± 0.056 | 1.08 ± 0.023 | 1.09 ± 0.035 | 1.13 ± 0.16 | 1.2 ± 0.087 | 1.2 ± 0.034 | 1.2 ± 0.09 | 0.961 ± 0.057 | 1.01 ± 0.09 | 0.97 ± 0.07 | 0.964 ± 0.08 | 1.02 ± 0.012 | 1.08 ± 0.055 | 1.09 ± 0.077 | 1.12 ± 0.025
2 | HMLE3 BREAST | 0.958 ± 0.049 | 1.06 ± 0.039 | 1.08 ± 0.024 | 1.06 ± 0.062 | 0.999 ± 0.086 | 1.02 ± 0.066 | 0.979 ± 0.1 | 0.978 ± 0.069 | 0.845 ± 0.061 | 0.91 ± 0.028 | 0.922 ± 0.053 | 0.862 ± 0.017 | 0.733 ± 0.032 | 0.745 ± 0.048 | 0.525 ± 0.03 | 0.612 ± 0.001
3 | HMT3552 BREAST | 1.05 | 1.07 | 1.01 | 0.985 | 1.04 | 1.16 | 1.11 | 1.12 | 1.11 | 1.12 | 1.01 | 1.08 | 1.02 | 0.941 | 0.92 | 0.843
4 | HOS BONE | 1.03 ± 0.026 | 1.02 ± 0.037 | 1.058 ± 0.01 | 1.04 ± 0.016 | 1.1 ± 0.024 | 1.1 ± 0.035 | 1.03 ± 0.046 | 1.1 ± 0.023 | 0.996 ± 0.015 | 1.01 ± 0.025 | 0.997 ± 0.014 | 1.01 ± 0.033 | 0.9843 ± 0.006 | 0.998 ± 0.018 | 0.951 ± 0.02 | 0.9593 ± 0.0051
5 | HOSMNG BONE | 0.936 ± 0.023 | 1.02 ± 0.037 | 0.959 ± 0.052 | 0.981 ± 0.046 | 1.05 ± 0.028 | 1.05 ± 0.029 | 1.06 ± 0.061 | 1.04 ± 0.024 | 1 ± 0.092 | 0.992 ± 0.059 | 0.999 ± 0.082 | 1.01 ± 0.027 | 0.992 ± 0.12 | 1.02 ± 0.084 | 0.991 ± 0.1 | 1.06 ± 0.03
6 | HS578T BREAST | 1.02 ± 0.061 | 0.87 ± 0.15 | 0.883 ± 0.11 | 1.01 ± 0.11 | 0.946 ± 0.046 | 0.9 ± 0.056 | 0.833 ± 0.11 | 0.936 ± 0.12 | 0.899 ± 0.029 | 0.913 ± 0.041 | 0.917 ± 0.076 | 1.09 ± 0.08 | 1.05 ± 0.08 | 0.892 ± 0.042 | 0.944 ± 0.041 | 0.936 ± 0.041
7 | HSSYII SYNOVIAL | 0.985 ± 0.056 | 1 ± 0.056 | 1.03 ± 0.063 | 1.02 ± 0.059 | 1.018 ± 0.0035 | 1.01 ± 0.017 | 0.978 ± 0.029 | 0.955 ± 0.046 | 0.526 ± 0.017 | 0.847 ± 0.035 | 0.872 ± 0.041 | 0.928 ± 0.074 | 0.663 ± 0.059 | 0.807 ± 0.058 | 0.82 ± 0.038 | 0.821 ± 0.022
8 | HT1080 SOFT TISSUE | 0.997 ± 0.018 | 1.02 ± 0.034 | 1.04 ± 0.026 | 1 ± 0.051 | 0.948 ± 0.019 | 1.02 ± 0.04 | 0.984 ± 0.0089 | 0.989 ± 0.029 | 1.009 ± 0.0071 | 1.016 ± 0.01 | 1.01 ± 0.028 | 1.03 ± 0.029 | 1.08 ± 0.025 | 1.04 ± 0.039 | 0.741 ± 0.0079 | 0.617 ± 0.036
